# Where two headings read alike, the source gives them in different places.
# Key:
# [1] = molecular target: T1, E. coli β-glucuronidase (EcGusB) (Escherichia coli, UniProt P05804); test: Inhibition of EcGusB hydrolysis of 4-methylumbelliferyl glucuronide (MU-GlcUA); format: biochemical; settings: for Ki: fluorogenic substrate MU-GlcUA, McIllvane buffer pH 5.0, competitive inhibition model
# T1 construct: made in house; host or cells: E. coli BL21 Gold (DE3)
# Text: (§1) To assess the potency of the synthesized 1-N-iminosugars, we first turned to the exo-acting β-glucuronidases AcGH79 and EcGusB, whose activity can be readily monitored with the use of the fluorogenic substrate 4-methylumbelliferyl glucuronide (MU-GlcUA). As these β-glucuronidases belong to different families–AcGH79 to the GH79 family and EcGusB to the GH2 family[46]—assessing inhibition with these enzymes also gives some insights into the applicability of these molecules. All four synthesized compounds (8–11) are able to inhibit both enzymes (see Table 1, Figures S5 and S6).
# (§2) Figure S6. Inhibition kinetics of EcGusB treated with synthetic inhibitors. The inhibition constants for EcGusB treated with A) 11, B) 9, C) 10, and D) 8 were determined. Michaelis-Menten saturation curves were determined in the presence of various concentration of inhibitor (left panel). These curves were fit to a hyperbolic equation, resulting in a Michaelis constant (KM). The KM values were then plotted against the inhibitor concentration (right panel). A linear fit of this plot was then used to determine the inhibition constant (KI).
# (§3) (1 picture or pasted object on this page, not shown here)
# (§4) Initial rates were determined for AcGH79 and EcGusB hydrolysis of 4-methylumbelliferyl glucuronide in the presence of varying concentrations either commercial or HPLC purified siastatin B to determine inhibitory IC50 concentrations. Reactions contained 20 mM NaCl, 1 % BSA, 60 mM McIllvane Buffer pH 5.0 and 500 µM 4-methylumbelliferyl glucuronide and 0 – 400 µM siastatin B. Assays were initiated by the addition of enzyme to a final concentration of 2 nM. Fluorescence was monitored using a Clariostar plate reader using an excitation wavelength of 365 nm and emission wavelength of 450 nm.
# (§5) Assays were performed in quadruplicate and the variation of initial rates with inhibitor concentration […]
# (§6) were fit to the Hill equation: with the software program Origin 2019. A=Amax( kn+ [I]n) To determine inhibition constant (Ki) values, Michaelis-Menten parameters were determined for AcGH79 and EcGusB hydrolysis of 4-methylumbelliferyl glucuronide in reactions containing one of the inhibitors 8, 9, 10 or 11. Assays were initiated by the addition of enzyme to the assay mix containing 0-1 mM 4-methylumbelliferyl glucuronide, 20 mM NaCl, 0.1 % BSA, 60 mM McIllvane Buffer pH
# (§7) 5.0. Fluorescence was monitored as above. Michaelis constants were determined for at least 3 different inhibitor concentrations for each different inhibitor. Inhibition constants were calculated according to a competitive inhibition model for both inhibitors using the equation : . All K= K(1+ [I]) […]
# (§8) kinetic parameters were fit with the software program Origin 2019. […]
# (§9) The Journal of Organic Chemistry 2005, 70, 5207-5214.
# (§10) Nat Struct Mol Biol 2015, 22 (12), 1016-1022.
# (§11) (7) Winter, G. xia2: an expert system for macromolecular crystallography data reduction. Journal of […]
# [2] = molecular target: T2, human heparanase (HPSE) (Homo sapiens, UniProt Q9Y251); test: Competitive activity-based protein profiling (cABPP) of HPSE in platelet lysate; format: biochemical; settings: cABPP with ABP VB-A69 100 nM, pH 5.0, 1 h preincubation at 37°C
# T2 construct: endogenous in cells; host or cells: human platelets (lysate)
# T2 sequence (Q9Y251 36-543): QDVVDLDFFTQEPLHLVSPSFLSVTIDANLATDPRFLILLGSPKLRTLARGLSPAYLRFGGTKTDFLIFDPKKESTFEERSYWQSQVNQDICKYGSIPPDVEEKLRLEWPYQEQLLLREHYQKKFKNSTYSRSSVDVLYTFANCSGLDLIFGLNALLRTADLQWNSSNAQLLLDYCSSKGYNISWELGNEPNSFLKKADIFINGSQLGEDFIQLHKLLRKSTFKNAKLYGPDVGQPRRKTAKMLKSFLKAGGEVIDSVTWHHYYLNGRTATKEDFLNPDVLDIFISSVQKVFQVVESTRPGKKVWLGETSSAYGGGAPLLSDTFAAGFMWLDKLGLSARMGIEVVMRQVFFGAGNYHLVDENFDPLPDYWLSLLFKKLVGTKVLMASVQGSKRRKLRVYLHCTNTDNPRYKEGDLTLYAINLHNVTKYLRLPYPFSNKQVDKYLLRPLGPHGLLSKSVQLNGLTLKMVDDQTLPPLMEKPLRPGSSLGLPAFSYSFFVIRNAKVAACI
# Text: (§12) We next examined whether the synthetic 1-N-iminosugars could inhibit HPSE and human β-glucuronidase. To assess the potency of these inhibitors, we used a competitive activity-based protein profiling (cABPP) assay, that measures the ability of the inhibitor to reduce fluorescent labeling of an enzyme by a fluorescent pan-β-glucuronidase activity-based probe (ABP).[16],[34] Using this cABPP assay, we can simultaneously monitor the inhibition of HPSE and GUSB that are both present in platelet lysates.[6],[29] […] The IC50’s determined for HPSE were greater than that observed for GUSB, which is anticipated for monomer-like inhibitors acting on multisubsite endo-acting enzymes. […] However, the trend that inhibition was improved with the removal of the 3-geminal diol was maintained for both GUSB and HPSE.
# (§13) Figure 3 Competitive ABPP of platelet lysate with synthetic iminosugars. Iminosugars 8–11 inhibit both GusB and HPSE present in human platelet lysate. Quantitated fluorescence plots used to determine IC50 values are available in Figure S7. Full length gel images and replicates are available in Figure S8, and Coomassie stained gels are available in Figure S9.
# (§14) Figure S7. Inhibition of HPSE and GusB in human platelet lysates by inhibitors 8, 9, 10 and 11. A […]
# (§15) normalized quantitated band intensities for HPSE against inhibitor concentration. […]
# (§16) Xray diffraction data were collected at 100 K at beamlines i03, i04 and i04-1 of the Diamond Light Source UK. Reflections were autoprocessed using the XIA2 pipeline7. Complexes were solved by directly refining against their unliganded structures where solved using molecular replacement with PHASER4 (search model PDB accessions 5E98 (HPSE), 3VNY (AcGH79), 3K46 (EcGUSB)). Solved […]
# (§17) refinement using COOT8 and REFMAC59 respectively. Ligand coordinates were built using jLigand10.
# (§18) Diagrams were generated using PyMOL (Delano Scientific). cABPP Labelling experiments:
# (§19) ABP labelling reactions were carried out in McIlvaine buffer (pH 5.0), 300 mM NaCl. Labeling reactions were initiated by the addition of ABP VB-A69 to a final concentration of 100 nM, before incubation for 30 min at 37°C with shaking. Following labeling, samples were denatured by boiling with Laemmli buffer for 5 min and resolved by SDS-PAGE. […]
# (§20) For competitive ABPP (cABPP) experiments, platelet lysates were preincubated with inhibitor (or buffer only control) in McIlvaine buffer (pH 5.0), 300 mM NaCl for 1 h at 37°C with shaking. […] For quantitative measurements, fluorescently labeled the band intensities were calculated using Imagequant (Cytiva), and normalized to the corresponding band in the inhibitor free control lane. IC50 concentrations were determined by fitting data to the Hill equation: […]
# [3] = molecular target: T3, Acidobacterium capsulatum β-glucuronidase (AcGH79) (Acidobacterium capsulatum, UniProt C1F2K5); test: Inhibition of AcGH79 hydrolysis of 4-methylumbelliferyl glucuronide (MU-GlcUA); format: biochemical
# T3 sequence (C1F2K5 1-475): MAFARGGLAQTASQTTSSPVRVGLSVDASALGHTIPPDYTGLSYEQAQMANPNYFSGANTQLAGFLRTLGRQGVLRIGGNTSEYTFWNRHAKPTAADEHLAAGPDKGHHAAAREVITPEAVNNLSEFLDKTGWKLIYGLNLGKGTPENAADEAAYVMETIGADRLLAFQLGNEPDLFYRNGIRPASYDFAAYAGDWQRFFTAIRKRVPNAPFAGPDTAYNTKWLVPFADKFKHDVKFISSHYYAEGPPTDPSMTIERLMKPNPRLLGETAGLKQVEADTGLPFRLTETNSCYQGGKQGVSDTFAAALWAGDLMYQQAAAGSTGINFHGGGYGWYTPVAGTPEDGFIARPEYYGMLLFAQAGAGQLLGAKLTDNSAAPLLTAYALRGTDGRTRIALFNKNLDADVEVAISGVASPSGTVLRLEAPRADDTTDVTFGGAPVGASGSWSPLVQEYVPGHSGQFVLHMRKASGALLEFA
# Text: as §1
# as §2, with “S5.” for “S6.”, “AcGH79” for “EcGusB”
# as §4, §5, §6, §7, §8, §9, §10, §11
# [4] = molecular target: T4, human β-glucuronidase (HsGUSB) (Homo sapiens, UniProt P08236); test: Competitive activity-based protein profiling (cABPP) of GUSB in platelet lysate; format: biochemical; settings: cABPP with ABP VB-A69 100 nM, pH 5.0, 1 h preincubation at 37°C
# T4 construct: endogenous in cells; host or cells: human platelets (lysate)
# T4 sequence (P08236 23-651): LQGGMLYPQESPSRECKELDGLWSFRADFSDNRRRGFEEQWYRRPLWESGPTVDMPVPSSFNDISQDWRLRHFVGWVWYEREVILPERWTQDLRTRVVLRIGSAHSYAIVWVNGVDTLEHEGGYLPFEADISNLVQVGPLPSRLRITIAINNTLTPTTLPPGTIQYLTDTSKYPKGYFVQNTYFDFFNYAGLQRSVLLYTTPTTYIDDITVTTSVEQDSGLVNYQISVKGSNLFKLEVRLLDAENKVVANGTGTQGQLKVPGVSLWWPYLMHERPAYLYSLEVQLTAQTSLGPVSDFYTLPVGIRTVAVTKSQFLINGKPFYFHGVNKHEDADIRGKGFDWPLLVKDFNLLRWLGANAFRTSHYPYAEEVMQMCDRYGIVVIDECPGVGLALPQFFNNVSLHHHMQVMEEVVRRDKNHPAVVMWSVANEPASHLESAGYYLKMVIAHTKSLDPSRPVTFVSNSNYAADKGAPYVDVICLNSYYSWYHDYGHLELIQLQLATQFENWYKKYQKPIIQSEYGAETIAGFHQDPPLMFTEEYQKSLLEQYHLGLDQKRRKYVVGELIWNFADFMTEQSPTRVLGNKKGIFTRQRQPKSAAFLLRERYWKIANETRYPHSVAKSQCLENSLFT
# Text: as §12, §13, §14, §15, §16, §17, §18, §19, §20
# [5] = Stability of siastatin B by 1H NMR; format: physicochemical
# Protocol: To determine how siastatin B inhibits β-glucuronidases, we first sought to determine whether inhibition was due to the presence of contaminants from either the commercial material or degradation products resulting from prolonged incubation in an aqueous solution or in the presence of a β-glucuronidase.
# Supplemental Figures and Tables
# Figure S1. Stability of siastatin B. A) 1H NMR experiment showing siastatin B (2 mg) in D2O phosphate buffer (50 mM, 300 mM NaCl, pH 5.0), taken for two different time points (t=0 min and after 18 h). B) Prolonged incubation of siastatin B with recombinant human heparanase. 1H NMR spectra were taken before and after prolonged incubation with 1.2 µM of recombinant human heparanase. The x-axis of […]
# as §3
# [6] = fluorogenic substrate MU-GlcUA, McIllvane buffer pH 5.0, competitive inhibition model, read-out: AcGH79 Ki
# [7] = 500 µM MU-GlcUA, 0–400 µM siastatin B, pH 5.0
# T1 sequence (P05804 whole entry): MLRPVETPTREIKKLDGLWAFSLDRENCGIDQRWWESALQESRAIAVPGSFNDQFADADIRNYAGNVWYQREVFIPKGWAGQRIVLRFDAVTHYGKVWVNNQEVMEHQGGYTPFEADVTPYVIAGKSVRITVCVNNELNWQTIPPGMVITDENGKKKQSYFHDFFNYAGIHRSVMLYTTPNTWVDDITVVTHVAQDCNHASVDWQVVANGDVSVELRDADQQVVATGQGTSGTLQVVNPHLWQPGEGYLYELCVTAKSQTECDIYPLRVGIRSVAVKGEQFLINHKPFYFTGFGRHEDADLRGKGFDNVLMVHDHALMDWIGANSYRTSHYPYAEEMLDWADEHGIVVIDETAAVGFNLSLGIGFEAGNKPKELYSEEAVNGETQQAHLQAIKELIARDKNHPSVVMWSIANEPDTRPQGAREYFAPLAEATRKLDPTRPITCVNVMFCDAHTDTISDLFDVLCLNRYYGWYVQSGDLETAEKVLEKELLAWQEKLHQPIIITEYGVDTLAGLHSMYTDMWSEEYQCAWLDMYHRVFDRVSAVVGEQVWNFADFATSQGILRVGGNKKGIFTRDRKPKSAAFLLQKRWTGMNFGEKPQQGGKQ
SMILES,Ki [1],IC50 [2],"Ki [3, 6]",IC50 [4],"Ki ([3]; MU-GlcUA substrate, read-out: inhibition constant for AcGH79)","inhibition of EcGusB by HPLC-purified material compared with commercial siastatin B [1, 7]","inhibition of AcGH79 by HPLC-purified material compared with commercial siastatin B [3, 7]","stability in aqueous buffer (NMR) ([5]; D2O phosphate buffer 50 mM, 300 mM NaCl, pH 5.0, 18 h)",stability on prolonged incubation with recombinant human heparanase (1H NMR) ([5]; heparanase 1.2 μM)
O=C(O)[C@H]1CNCC(O)(O)[C@H]1O [compound 8],137 ± 3 µM,27 ± 3 µM,5800 ± 500 nM,4000 ± 2000 nM,,,,,
O=C(O)[C@H]1CNCC(O)(O)[C@@H]1O [compound 9],28 ± 1 µM,200 ± 80 µM,,1700 ± 200 nM,520 ± 30 nM,,,,
"O=C(O)[C@H]1CNC[C@@H](O)[C@H]1O [compound 10, galacturonic acid isofagomine]",23 ± 3 µM,8 ± 1 µM,1500 ± 400 nM,700 ± 40 nM,,,,,
"O=C(O)[C@H]1CNC[C@@H](O)[C@@H]1O [compound 11, glucuronic acid isofagomine]",1.5 ± 0.3 µM,80 ± 20 µM,22 ± 3 nM,600 ± 60 nM,,,,,
"CC(=O)N[C@H]1NC[C@H](C(=O)O)[C@H](O)[C@@H]1O [siastatin B, Siastatin B]",,,,,,inhibited less,inhibited less,no contaminating peaks appeared,"very minor additional peaks in the 3.2–3.0 range, with no loss in the starting peaks observed"

# — article PMC10785800, “Molecular Basis for Inhibition of Heparanases and β-Glucuronidases by Siastatin B” (Journal of the American Chemical Society, 2023)
